Molecules are shown by their SMILES. pIC50: −log10 of the molar value.

Holding throughout (format): biochemical
In one experiment the target is EGFR WT (Homo sapiens (Human), UniProt P00533). Briefly: HotSpot radiometric kinase assay (Reaction Biology), EGFR WT. The settings on record: 10 μM ATP. The essentials: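 Kinase, substrate and cofactors are mixed in 20 mM Hepes pH 7.5 with 10 mM MgCl2, 1 mM EGTA, 2 mM DTT and 1% DMSO. Compound is added, and about 20 min later ATP/33P-ATP (10 μM final) starts a 120-min room-temperature reaction, which is then spotted onto P81 paper.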

A further experiment has as its target EGFR (D770_N771insNPG) (Homo sapiens (Human), UniProt P00533, INS770NPG). Kind of experiment: HotSpot radiometric kinase assay, EGFR (D770_N771insNPG). Conditions: 10 μM ATP, read-out: EGFR (Δ770_N771insNPG) IC50. The essentials: (§1)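 IC50 values derive from curve fits of 33P incorporation measured by P81 filter binding. ATP was 10 μM final; incubation lasted 120 min at room temperature after ~20 min compound preincubation.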

A further experiment addresses EGFR Δ746-750 mutant (Homo sapiens (Human), UniProt P00533, DEL746-750). Briefly: HotSpot radiometric kinase assay, EGFR Δ746-750 mutant. Conditions: 10 μM ATP. Summed up:
as §1

For experiment [1], the target named is EGFR Δ746-750/C797S mutant (Homo sapiens (Human), UniProt P00533, C797S/DEL746-750). Briefly: HotSpot radiometric kinase assay, EGFR Δ746-750/C797S mutant. Conditions: 10 μM ATP. The essentials: as §1
Sequence of EGFR Δ746-750/C797S mutant (P00533 other isoform, or with tags, fused parts or gaps C797S/del 1-668/del 746-750 limits assumed): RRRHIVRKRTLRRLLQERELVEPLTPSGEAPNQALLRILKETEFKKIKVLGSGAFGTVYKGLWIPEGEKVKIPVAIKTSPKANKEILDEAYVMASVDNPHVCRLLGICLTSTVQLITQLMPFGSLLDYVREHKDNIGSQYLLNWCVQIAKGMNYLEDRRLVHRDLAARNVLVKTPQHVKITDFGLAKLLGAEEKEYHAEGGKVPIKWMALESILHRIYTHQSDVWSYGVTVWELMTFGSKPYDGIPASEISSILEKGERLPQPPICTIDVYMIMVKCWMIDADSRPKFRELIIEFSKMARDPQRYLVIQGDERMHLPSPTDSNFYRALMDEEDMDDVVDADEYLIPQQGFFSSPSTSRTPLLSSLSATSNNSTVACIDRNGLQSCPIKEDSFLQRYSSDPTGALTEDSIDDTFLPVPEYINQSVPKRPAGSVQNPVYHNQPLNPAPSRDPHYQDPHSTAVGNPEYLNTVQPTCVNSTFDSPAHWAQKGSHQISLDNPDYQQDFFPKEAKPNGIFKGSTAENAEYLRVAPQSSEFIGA
The target in another experiment is EGFR L858R mutant (Homo sapiens (Human), UniProt P00533, L858R). Kind of experiment: HotSpot radiometric kinase assay, EGFR L858R mutant. Conditions: 10 μM ATP. The essentials:
as §1

The target of another experiment is EGFR L858R/T790M mutant (Homo sapiens (Human), UniProt P00533, L858R/T790M). Kind of experiment: HotSpot radiometric kinase assay, EGFR L858R/T790M mutant. The settings on record: 10 μM ATP. Summed up:
as §1

For experiment [2], the target named is EGFR L858R/T790M/C797S mutant (Homo sapiens (Human), UniProt P00533, C797S/L858R/T790M). Kind of experiment: HotSpot radiometric kinase assay, EGFR L858R/T790M/C797S mutant. Conditions: 10 μM ATP. Summed up: as §1
Sequence of EGFR L858R/T790M/C797S mutant (P00533 25-1210 T790M/C797S/L858R): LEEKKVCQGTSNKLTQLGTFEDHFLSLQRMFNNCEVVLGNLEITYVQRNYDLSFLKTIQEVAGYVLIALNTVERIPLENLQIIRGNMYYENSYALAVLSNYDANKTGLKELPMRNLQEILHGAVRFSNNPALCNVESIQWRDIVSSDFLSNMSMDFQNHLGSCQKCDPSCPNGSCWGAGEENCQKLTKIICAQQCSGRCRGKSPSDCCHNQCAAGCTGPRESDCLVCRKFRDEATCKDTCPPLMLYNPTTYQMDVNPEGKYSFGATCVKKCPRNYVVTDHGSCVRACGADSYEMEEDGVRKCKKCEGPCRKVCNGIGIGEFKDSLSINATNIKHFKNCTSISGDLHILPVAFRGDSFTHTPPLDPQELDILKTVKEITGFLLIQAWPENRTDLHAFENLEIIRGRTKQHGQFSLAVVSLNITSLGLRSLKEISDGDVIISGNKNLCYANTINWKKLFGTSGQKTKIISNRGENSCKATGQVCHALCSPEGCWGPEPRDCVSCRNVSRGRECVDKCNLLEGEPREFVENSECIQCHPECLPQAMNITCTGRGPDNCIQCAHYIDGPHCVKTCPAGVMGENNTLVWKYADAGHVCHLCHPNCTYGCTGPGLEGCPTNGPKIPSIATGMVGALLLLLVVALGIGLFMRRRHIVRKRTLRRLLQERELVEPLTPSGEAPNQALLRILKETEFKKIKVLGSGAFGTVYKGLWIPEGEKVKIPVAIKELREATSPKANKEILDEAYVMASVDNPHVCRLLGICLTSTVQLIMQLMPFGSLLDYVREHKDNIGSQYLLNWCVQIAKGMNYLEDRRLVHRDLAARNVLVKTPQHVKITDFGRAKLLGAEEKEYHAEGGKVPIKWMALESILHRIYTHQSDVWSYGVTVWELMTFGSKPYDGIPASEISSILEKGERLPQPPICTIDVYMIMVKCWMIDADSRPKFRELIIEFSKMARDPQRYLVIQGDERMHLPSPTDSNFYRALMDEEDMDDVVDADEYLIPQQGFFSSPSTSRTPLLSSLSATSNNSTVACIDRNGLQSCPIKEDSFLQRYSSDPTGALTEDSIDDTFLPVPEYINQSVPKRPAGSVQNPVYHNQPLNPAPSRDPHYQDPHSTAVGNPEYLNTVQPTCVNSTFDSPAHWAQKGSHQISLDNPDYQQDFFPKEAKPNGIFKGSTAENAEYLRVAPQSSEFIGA
The next experiment deals with CLK1 (Homo sapiens (Human), UniProt P49759). Kind of experiment: Inhibition of CLK1 kinase activity evaluated at Nanosyn (ADP-Glo). Conditions: ADP-Glo luminescence. The essentials:
(§2)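 Enzyme + substrate in HEPES pH 7.5/MgCl2/DTT buffer; compound dispensed acoustically, 1% DMSO. ATP start, assay-specific incubation time. ADP-Glo reagent 40 min, detection reagent 10 min, luminescence. %inh vs DMSO (0%) and no-enzyme (100%) controls.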
(In general: ADP-Glo first removes unused ATP, then detects ADP through luciferase.)

A further experiment deals with CLK2 (Homo sapiens (Human), UniProt P49760). Kind of experiment: Inhibition of CLK2 kinase activity evaluated at Nanosyn (ADP-Glo). The settings on record: ADP-Glo luminescence. Summed up:
as §2

The target in the next experiment is CLK3 (Homo sapiens (Human), UniProt P49761). Kind of experiment: Inhibition of CLK3 kinase activity evaluated at Nanosyn (ADP-Glo). Conditions: ADP-Glo luminescence. The essentials:
as §2

The target of another experiment is CLK4 (Homo sapiens (Human), UniProt Q9HAZ1). Briefly: Inhibition of CLK4 kinase activity evaluated at Nanosyn (ADP-Glo). The settings on record: ADP-Glo luminescence. Summed up:
as §2

Sequence of EGFR L858R mutant (P00533 25-1210 L858R): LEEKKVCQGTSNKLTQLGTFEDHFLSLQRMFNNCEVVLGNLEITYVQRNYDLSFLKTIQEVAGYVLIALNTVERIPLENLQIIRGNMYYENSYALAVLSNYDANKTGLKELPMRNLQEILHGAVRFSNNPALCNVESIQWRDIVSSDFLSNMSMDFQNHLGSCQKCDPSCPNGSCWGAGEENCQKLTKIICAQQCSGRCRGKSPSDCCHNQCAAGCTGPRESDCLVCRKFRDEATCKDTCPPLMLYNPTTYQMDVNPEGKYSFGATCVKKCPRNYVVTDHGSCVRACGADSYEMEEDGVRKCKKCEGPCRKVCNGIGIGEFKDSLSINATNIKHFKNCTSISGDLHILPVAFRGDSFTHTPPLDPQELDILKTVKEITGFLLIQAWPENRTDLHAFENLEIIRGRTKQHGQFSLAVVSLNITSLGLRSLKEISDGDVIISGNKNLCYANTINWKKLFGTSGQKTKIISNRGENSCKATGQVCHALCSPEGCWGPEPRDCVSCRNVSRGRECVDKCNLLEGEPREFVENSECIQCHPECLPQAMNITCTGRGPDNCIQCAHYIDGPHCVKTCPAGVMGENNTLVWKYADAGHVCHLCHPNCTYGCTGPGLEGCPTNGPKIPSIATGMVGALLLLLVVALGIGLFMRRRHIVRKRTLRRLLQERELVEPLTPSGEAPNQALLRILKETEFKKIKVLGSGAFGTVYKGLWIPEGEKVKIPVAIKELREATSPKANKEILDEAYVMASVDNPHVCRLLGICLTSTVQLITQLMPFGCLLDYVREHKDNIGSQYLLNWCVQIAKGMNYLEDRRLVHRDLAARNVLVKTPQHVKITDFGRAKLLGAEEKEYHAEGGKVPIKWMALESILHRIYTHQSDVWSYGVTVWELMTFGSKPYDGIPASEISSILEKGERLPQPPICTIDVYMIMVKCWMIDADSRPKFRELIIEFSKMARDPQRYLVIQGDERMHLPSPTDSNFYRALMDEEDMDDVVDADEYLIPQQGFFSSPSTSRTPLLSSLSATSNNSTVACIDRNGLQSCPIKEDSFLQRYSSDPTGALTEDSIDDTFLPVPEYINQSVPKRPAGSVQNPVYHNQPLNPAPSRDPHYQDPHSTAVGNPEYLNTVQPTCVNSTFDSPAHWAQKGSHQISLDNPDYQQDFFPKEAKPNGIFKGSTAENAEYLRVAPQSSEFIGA
Sequence of CLK3 (P49761 whole entry): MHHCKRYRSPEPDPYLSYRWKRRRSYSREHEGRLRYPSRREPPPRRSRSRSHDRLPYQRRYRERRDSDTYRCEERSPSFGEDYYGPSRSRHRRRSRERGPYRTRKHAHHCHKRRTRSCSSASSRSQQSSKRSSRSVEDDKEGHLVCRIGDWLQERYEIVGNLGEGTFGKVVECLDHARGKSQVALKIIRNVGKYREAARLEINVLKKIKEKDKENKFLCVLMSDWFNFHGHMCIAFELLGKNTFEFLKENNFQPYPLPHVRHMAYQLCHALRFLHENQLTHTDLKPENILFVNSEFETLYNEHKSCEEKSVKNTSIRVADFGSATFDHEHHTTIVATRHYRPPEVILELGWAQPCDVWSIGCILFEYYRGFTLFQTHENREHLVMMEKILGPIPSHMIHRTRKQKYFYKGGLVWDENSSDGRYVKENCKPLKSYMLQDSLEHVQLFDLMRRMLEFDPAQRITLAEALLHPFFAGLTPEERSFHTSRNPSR
Sequence of CLK4 (Q9HAZ1 whole entry): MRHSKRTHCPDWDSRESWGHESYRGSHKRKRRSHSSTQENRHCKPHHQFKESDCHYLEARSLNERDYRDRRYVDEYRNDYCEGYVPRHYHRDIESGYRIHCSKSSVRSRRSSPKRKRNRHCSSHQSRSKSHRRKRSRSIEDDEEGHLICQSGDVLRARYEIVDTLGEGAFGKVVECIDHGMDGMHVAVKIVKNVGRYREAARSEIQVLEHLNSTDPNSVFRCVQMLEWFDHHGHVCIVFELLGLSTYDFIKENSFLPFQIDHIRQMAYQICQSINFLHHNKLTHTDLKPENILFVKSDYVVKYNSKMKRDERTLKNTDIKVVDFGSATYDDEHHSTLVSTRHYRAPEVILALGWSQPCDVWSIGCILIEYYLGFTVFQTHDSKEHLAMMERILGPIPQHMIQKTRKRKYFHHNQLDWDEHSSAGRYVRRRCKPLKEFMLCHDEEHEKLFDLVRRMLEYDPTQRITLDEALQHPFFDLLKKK
Sequence of EGFR Δ746-750 mutant (P00533 other isoform, or with tags, fused parts or gaps del 1-668/del 746-750 limits assumed): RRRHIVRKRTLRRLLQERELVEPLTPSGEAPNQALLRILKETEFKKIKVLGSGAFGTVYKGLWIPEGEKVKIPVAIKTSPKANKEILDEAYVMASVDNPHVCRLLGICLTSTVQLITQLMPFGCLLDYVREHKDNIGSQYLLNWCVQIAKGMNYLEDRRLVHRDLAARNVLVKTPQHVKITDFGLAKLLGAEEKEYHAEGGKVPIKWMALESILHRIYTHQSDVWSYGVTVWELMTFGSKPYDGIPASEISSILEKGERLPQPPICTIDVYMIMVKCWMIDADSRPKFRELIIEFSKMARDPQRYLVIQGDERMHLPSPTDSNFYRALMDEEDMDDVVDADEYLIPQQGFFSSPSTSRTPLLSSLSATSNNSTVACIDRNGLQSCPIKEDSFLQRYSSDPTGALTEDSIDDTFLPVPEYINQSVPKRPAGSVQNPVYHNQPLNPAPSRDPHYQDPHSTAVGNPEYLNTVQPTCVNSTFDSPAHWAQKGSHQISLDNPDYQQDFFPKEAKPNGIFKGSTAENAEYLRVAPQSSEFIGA
Sequence of CLK2 (P49760 whole entry): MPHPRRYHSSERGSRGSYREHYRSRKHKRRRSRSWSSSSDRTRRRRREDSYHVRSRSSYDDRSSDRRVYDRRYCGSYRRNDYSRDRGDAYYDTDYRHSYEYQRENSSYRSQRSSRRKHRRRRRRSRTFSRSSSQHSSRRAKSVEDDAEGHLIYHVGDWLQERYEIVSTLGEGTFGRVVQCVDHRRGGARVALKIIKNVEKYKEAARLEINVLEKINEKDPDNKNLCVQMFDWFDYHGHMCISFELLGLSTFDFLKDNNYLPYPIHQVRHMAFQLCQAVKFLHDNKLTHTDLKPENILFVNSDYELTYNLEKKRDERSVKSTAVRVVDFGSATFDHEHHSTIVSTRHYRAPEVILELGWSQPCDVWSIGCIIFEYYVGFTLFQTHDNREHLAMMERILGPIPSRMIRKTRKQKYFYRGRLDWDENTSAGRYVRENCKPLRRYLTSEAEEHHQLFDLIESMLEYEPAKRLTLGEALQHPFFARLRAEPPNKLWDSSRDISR

Take `CCOc1nn(CCO)c2c1/C=C/c1n[nH]c3ccc(cc13)-c1cnn(C)c1O[C@@H](C)CN(CC)C2` [Example 177, 2-[(10S,17E)-16-ethoxy-12-ethyl-8,10-dimethyl-2,8,10,11,12,13-hexahydro-14H-3,5-ethenotripyrazolo[3,4-f:3′,4′-j:4″,3″-n][1,4]oxazacyclopentadecin-14-yl]ethan-1-ol]: the pIC50 – broadly, −log10 of the IC50, conventionally taken in molar units – at EGFR WT was 9.17; at EGFR (D770_N771insNPG) it was 8.81; against EGFR Δ746-750 mutant it was 9.25; in experiment [1], 9.12; against EGFR L858R mutant it was 9.42; against EGFR L858R/T790M mutant, 9.22. The negative-log IC50 (pIC50) in [2] was 8.75; at CLK1, 9.33; at CLK2 it was 9.64; at CLK3 it was 7.23; on CLK4, 8.97.

For `CCOc1nn(C)c2c1/C=C/c1n[nH]c3ccc(cc13)-c1cnn(C)c1O[C@@H]1CCN(C2)C1` [Example 236, (10R,18E)-17-ethoxy-8,15-dimethyl-2,8,11,12,14,15-hexahydro-10H-3,5-etheno-10,13-methanotripyrazolo[3,4-g:3′,4′-k:4″,3″- o][1,5]oxazacyclohexadecine], the negative-log IC50 (pIC50) was 7.57 at EGFR WT; 7.16 on EGFR (D770_N771insNPG); 8.29 against EGFR Δ746-750 mutant; 7.94 in experiment [1]; 7.92 against EGFR L858R mutant; 9.10 at EGFR L858R/T790M mutant. Also, the pIC50 in [2] was 8.97; at CLK1, 9.18; on CLK2 it was 8.76; at CLK3, 6.40; at CLK4, 8.99.

`CCN1Cc2c(c(OC(C)C)nn2C[C@H](C)O)/C=C/c2n[nH]c3ccc(cc23)-c2cnn(C)c2O[C@H](C)C1` [Example 227, (2S)-1-{(10R,17E)-12-ethyl-8,10-dimethyl-16-[(propan-2-yl)oxy]-2,8,10,11,12,13-hexahydro-14H-3,5-ethenotripyrazolo[3,4-f:3′,4′-j:4″,3″- n][1,4]oxazacyclopentadecin-14-yl}propan-2-ol]: the pIC50 against EGFR WT was 6.60; at EGFR (D770_N771insNPG), 6.78; on EGFR Δ746-750 mutant, 8.01; in [1], 8.17; against EGFR L858R mutant, 7.22; on EGFR L858R/T790M mutant, 9.08. Also, the pIC50 in experiment [2] is 9.44; at CLK1 it was 8.31; on CLK2, 8.59; on CLK3, 6.33; at CLK4, 8.33.

For `CCOc1nn(C)c2c1/C=C/c1n[nH]c3ccc(cc13)-c1cnn(C)c1OC1CN(C2)C1` [Example 238, (17E)-16-ethoxy-8,14-dimethyl-2,8,10,11,13,14-hexahydro-3,5-etheno-10,12-methanotripyrazolo[3,4-f:3′,4′-j:4″,3″-n][1,4]oxazacyclopentadecine], the negative-log IC50 (pIC50) against EGFR WT is 6.69; on EGFR (D770_N771insNPG) it was 6.66; against EGFR Δ746-750 mutant, 7.76; in experiment [1], 7.38; on EGFR L858R mutant it was 7.14; at EGFR L858R/T790M mutant, 7.99. The pIC50 in experiment [2] was 7.93; at CLK1 it was 9.05; on CLK2, 8.61; on CLK3, 6.00; at CLK4 it was 8.97.

Consider `Cc1nn(CCO)c2c1/C=C/c1n[nH]c3ccc(cc13)-c1cnn(C)c1O[C@@H](C)CN(C(C)C)C2` [Example 114, 2-[(10S,17E)-8,10,16-trimethyl-12-(propan-2-yl)-2,8,10,11,12,13-hexahydro-14H-3,5-ethenotripyrazolo[3,4-f:3′,4′-j:4″,3″- n][1,4]oxazacyclopentadecin-14-yl]ethan-1-ol], for which the pIC50 against EGFR WT was 9.42; at EGFR (D770_N771insNPG) it was 9.04; against EGFR Δ746-750 mutant it was 9.77; in experiment [1], 9.04; at EGFR L858R mutant, 10.00; on EGFR L858R/T790M mutant it was 9.96. The pIC50 in experiment [2] was 9.01; on CLK1, 9.64; at CLK2, 9.92; at CLK3, 7.68; on CLK4 it was 9.34.

With `Cn1ncc2c1OCCN1CC[C@H](C1)Oc1ccccc1/C=C/c1n[nH]c3ccc-2cc13` [Example 170, (10R,16E)-3-methyl-3,5,6,9,10,19-hexahydro-8H-20,22-etheno-7,10-methanodipyrazolo[3,4-i:4′,3′-m][1,8,5]benzodioxazacyclooctadecine], the negative logarithm of the IC50 (pIC50) against EGFR WT is 6.04; on EGFR (D770_N771insNPG), 6.48; on EGFR Δ746-750 mutant it was 6.94; in [1], 7.52; against EGFR L858R mutant it was 6.51; against EGFR L858R/T790M mutant it was 7.44. Besides, the pIC50 in experiment [2] is 7.59; at CLK1, 9.42; at CLK2, 9.44; at CLK3, 6.00; at CLK4, 9.37.

In the case of `Cc1c2c(nn1C)/C=C/c1n[nH]c3ccc(cc13)-c1cnn(C)c1O[C@@H](C)CN(C(C)C)C2` [Example 233, (10S,17E)-8,10,14,15-tetramethyl-12-(propan-2-yl)-2,10,11,12,13,15-hexahydro-8H-3,5-ethenotripyrazolo[4,3-f:3′,4′-j:4″,3″- n][1,4]oxazacyclopentadecine], the pIC50 is 6.82 against EGFR WT; 6.59 on EGFR (D770_N771insNPG); 7.97 against EGFR Δ746-750 mutant; 7.60 in [1]; 7.38 at EGFR L858R mutant; 8.88 against EGFR L858R/T790M mutant. Also, the negative logarithm of the IC50 (pIC50) in experiment [2] was 8.79; on CLK1 it was 9.15; at CLK2, 9.37; on CLK3 it was 6.39; at CLK4, 9.05.

For `CCOc1nn(CCO)c2c1/C=C/c1n[nH]c3ccc(cc13)-c1cnn(C)c1O[C@H](C)CNC2` [Example 197, 2-[(10R,17E)-16-ethoxy-8,10-dimethyl-2,8,10,11,12,13-hexahydro-14H-3,5-ethenotripyrazolo[3,4-f:3′,4′-j:4″,3″- n][1,4]oxazacyclopentadecin-14-yl]ethan-1-ol], the negative logarithm of the IC50 (pIC50) was 6.71 against EGFR WT; 6.66 on EGFR (D770_N771insNPG); 7.21 against EGFR Δ746-750 mutant; 7.53 in experiment [1]; 7.02 on EGFR L858R mutant; 8.34 at EGFR L858R/T790M mutant. Moreover, the negative-log IC50 (pIC50) in experiment [2] is 8.66; on CLK1, 8.94; at CLK2 it was 8.51; at CLK3, 7.10; on CLK4 it was 8.80.

Regarding `CCN1Cc2c(c(OC(C)C)nn2CC(C)(C)O)/C=C/c2n[nH]c3ccc(cc23)-c2cnn(C)c2O[C@@H](C)C1` [Example 262, 1-{(10S,17E)-12-ethyl-8,10-dimethyl-16-[(propan-2-yl)oxy]-2,8,10,11,12,13-hexahydro-14H-3,5-ethenotripyrazolo[3,4-f:3′,4′-j:4″,3″-n][1,4]oxazacyclopentadecin-14-yl}-2-methylpropan-2-ol], the pIC50 is 7.02 against EGFR WT; 7.01 at EGFR (D770_N771insNPG); 8.07 at EGFR Δ746-750 mutant; 8.15 in [1]; 7.40 at EGFR L858R mutant; 8.30 on EGFR L858R/T790M mutant. For the same molecule, the pIC50 in [2] is 8.78; at CLK1, 9.09; on CLK2 it was 9.31; on CLK3 it was 6.98; at CLK4, 8.82.

For the molecule `CCOc1nn(CC(C)(C)O)c2c1/C=C/c1n[nH]c3ccc(cc13)-c1cnn(C)c1O[C@@H](C)CN(CC)C2` [Example 222, 1-[(10S,17E)-16-ethoxy-12-ethyl-8,10-dimethyl-2,8,10,11,12,13-hexahydro-14H-3,5-ethenotripyrazolo[3,4-f:3′,4′-j:4″,3″-n][1,4]oxazacyclopentadecin-14-yl]-2-methylpropan-2-ol], the pIC50 on EGFR WT was 7.56; at EGFR (D770_N771insNPG) it was 7.24; against EGFR Δ746-750 mutant it was 8.75; in experiment [1], 8.66; against EGFR L858R mutant it was 8.32; on EGFR L858R/T790M mutant, 9.51. Besides, the pIC50 was 9.74 in [2]; 8.64 at CLK1; 8.50 at CLK2; 6.51 at CLK3; 8.61 at CLK4.

The record behind these values is patent US20250353864A1, “INDAZOLE CONTAINING MACROCYCLES AND THEIR USE” (BLOSSOMHILL THERAPEUTICS, INC., priority 2022, published 2025).
